Format in all cases: cell-based, human
In one experiment the test system is HeLa cells. As to the kind of experiment: Cell viability of HeLa cells with siRNA of control, BRCA1 or RAD51 (drug sensitivity test, Presto Blue; Example 1). The note with it: siRNA of BRCA1 or RAD51, drug added 24 h later, 96 h culture, FIG. 1B/1C. How it is done:
HeLa cells (human cervical cancer cell line) were purchased from ATCC (Manassas, VA, USA). HeLa cells were cultured in DMEM medium (Nissui Pharmaceutical Co., Ltd., Tokyo, Japan) supplemented with 8% Fetal Bovine Serum (FBS) (Biowest Inc., Nuaille, France) and 3% L-glutamine at 37° C. in the presence of 5% CO2.
(§1) A stock solution of Nicaraven was prepared by dissolving Nicaraven in DMEM medium at a final concentration of 40 mM and sterilizing the solution through a filter. Olaparib (Adooq Bioscience, Irvine, CA, USA) was prepared as a stock solution of Olaparib in DMSO (FUJIFILM Wako Pure Chemical Corporation, Osaka, Japan) at a final concentration of 50 mM. […]
HeLa cell suspension adjusted to 5000 cells/ml was seeded in a 96 well plate at 100 μl/well, and the next day, siRNA was introduced, followed by addition of Olaparib or Nicaraven. One hundred twenty hours after gene introduction and Olaparib addition, Hela cells were replaced in a medium to which Presto Blue assay (Thermo-Fisher Scientific, Waltham, MA, USA) had been added so as to have a final concentration of 5%, followed by reaction in the presence of 5% CO2 at 37° C. for 1 hour, and then fluorescence was measured under conditions of an excitation wavelength of 520 nm and a fluorescence wavelength of 580 to 640 nm using GloMax (registered trademark) Explorer Multimode Microplate Reader (Promega, Madison, WI, USA). […]

Experiment [1] concerns homologous recombination activity in HeLa cells. As to the kind of experiment: Homologous recombination activity (ASHRA, knock-in efficiency by quantitative PCR; Example 2). The note with it: control cells and cells with BRCA1 and RAD51 expression suppressed; 48 h culture with drug; FIG. 2B. From the text: FIG. 5 illustrates an outline of a method for measuring homologous recombination repair (HR) activity (Assay for site-specific HR activity (ASHRA)) performed in Examples. In this method, a CRISPR/Cas9 system used for genome editing as a site-specific DNA cleaving enzyme is used to create a site-specific DNA double strand break in a target endogenous gene. Then, a fusion gene of a reporter and a target gene is generated by HR between a DNA fragment as a substrate for HR containing the reporter and the target endogenous gene. The production efficiency of the fusion gene of a reporter and a target gene is quantified as the HR repair activity of cell in the cell. For the method for detecting a fusion gene, flow cytometry, Western blotting, quantitative PCR, or the like can be used while changing the reporter. Step 1: Introduce Cas9/guide RNA expression vector and donor vector into cells. […] Step 4: Detecting knock-in efficiency of marker ((1) Western blotting, (2) flow cytometry, (3) quantitative PCR). […]
HeLa cells were seeded on a 3.5 cm dish, and the next day, siRNA was introduced. […] Genome quantitative PCR was performed using Go Taq qPCR master mix (Promega, Madison, WI, USA), measurement was done using CFX96 Touch Real-time PCR detection system (BioRad, Hercules, CA, USA), and knock-in efficiency was calculated by ΔΔCt method. […]

For experiment [2], the system named is γ-H2AX, a marker of DNA double-strand break, in HeLa cells. Kind of experiment: γ-H2AX intranuclear foci after X-ray irradiation (DNA double-strand break repair, immunostaining; Example 3). Particulars: drug 30 min before 1.5 Gy X-ray, 24 h after irradiation, FIG. 3. How it is done: After cell seeding, Nicaraven was added. After 30 minutes, the cells were irradiated with 1.5 Gy of X-ray, and after 2 hours and 24 hours, the cells were fixed and immunostained with an anti-γ-H2AX antibody.
Cells in which five or more γ-H2AX intranuclear foci were observed were counted, and the ratio was calculated and represented in a graph. Respective cells in which less than 5, 5 or more and less than 10, 10 or more and less than 20, and 20 or more γ-H2AX intranuclear foci were observed were counted, and the ratio was calculated and represented in a graph (FIG. 3D).

A further experiment has as its system KYSE270 cells. As to the kind of experiment: Cell viability of KYSE270 esophageal cancer cells with siRNA of control or RAD51 (Example 5). Particulars: siRNA of RAD51, drug added 24 h later, 5 days culture, FIG. 6B. As to the method:
KYSE270 cells and KYSE30 cells (human esophageal squamous cell carcinoma cell line) were purchased from JCRB Cell Bank, National Institutes of Biomedical Innovation, Health and Nutrition (Osaka, Japan). KYSE270 cells and KYSE30 cells were cultured in a medium in which RPMI1640 and Ham's F12 medium (both of which were manufactured by FUJIFILM Wako Pure Chemical Corporation, Osaka, Japan) were mixed in equal amounts and 5% FBS was added at 37° C. in the presence of 5% CO2.
as §1
FIG. 6A. Protocol of an experiment in which cell viability under Olaparib, Nicaraven or Edaravone treatment on cells having reduced homologous recombination activity was analyzed. siRNA of control or RAD51 was introduced into esophageal cancer cells KYSE270 cells, and 24 hours later, either Olaparib or Nicaraven was added. After 5 days of culture, cell viability was measured.

For a further experiment, the system named is KYSE30 cells. Kind of experiment: Cell viability of KYSE30 esophageal cancer cells with siRNA of RAD51 (Example 5). Particulars: siRNA of RAD51, drug added 24 h later, compared with the control, FIG. 7.

For the molecule `CC(CNC(=O)c1cccnc1)NC(=O)c1cccnc1` (centres unmarked) [Nicaraven], the “cell viability when expression of BRCA1 and RAD51 was suppressed” value with HeLa cells is “cell viability further decreased”. Besides, the homologous recombination activity result in experiment [1] was “did not affect the homologous recombination ability”. The “DNA damage remaining (γ-H2AX intranuclear foci), RAD51-suppressed versus control” value in experiment [2] (RAD51 expression suppressed) is “DNA damage remained more remarkably in the state in which the expression of RAD51 was suppressed”. For the same molecule, the “DNA damage remaining (γ-H2AX intranuclear foci), control and RAD51-suppressed cells” value in experiment [2] (control and RAD51-suppressed) was “caused DNA damage to remain in both the control and the state in which the expression of RAD51 was suppressed”. Moreover, the “cell viability when expression of RAD51 is suppressed” value in the experiment on KYSE270 cells is “cell viability further decreased”. The “cell viability in cells in which expression of RAD51 was suppressed” value with KYSE30 cells is given as “cell viability decreased in cells in which expression of RAD51 was suppressed, as compared with the control”.

As to `O=C(c1cc(Cc2n[nH]c(=O)c3ccccc23)ccc1F)N1CCN(C(=O)C2CC2)CC1` [Olaparib, reference compound], the “cell viability when expression of BRCA1 and RAD51 was suppressed” value in the experiment on HeLa cells was “decreased cell viability in cells in which expression of BRCA1 and RAD51 was suppressed, as compared with the control”. Also, the “cell viability when expression of RAD51 is suppressed” value with KYSE270 cells was “decreased cell viability in cells in which expression of RAD51 was suppressed, as compared with the control”.

These data come from patent publication US20260315451A1, “MEDICINE FOR TREATING CANCER” (SCIENCE TECHNOLOGY INTERACT CO., LTD., priority 2022, published 2026).
